Experimental findings from US20260207573A1, “EFFECT OF RIVOCERANIB ON CYTOCHROME P450 ENZYME SUBSTRATES” (ELEVAR THERAPEUTICS, INC., priority 2022, published 2026) are described below.

Entries after “also recorded” stand apart in the source; their conditions may differ.

Data set [1] has as its target T1, CYP2C19 (Homo sapiens, UniProt P33261). Briefly: Example 2 phase 1 drug-drug interaction study, rivoceranib 700 mg QD + 5+1 cocktail: omeprazole probe. How it is done: (§1) This example describes a pharmacokinetic interaction study in healthy human volunteers dosed with 700 mg rivoceranib and a mixture of cytochrome P450 enzyme (CYP1A2, CYP2C9, CYP2C19, CYP2D6, and CYP3A) substrates.
(§2) The primary objective of the study was to evaluate the effect of rivoceranib 700 mg once daily (QD) on the pharmacokinetics (PK) of various CYP substrates to determine drug-drug interactions of rivoceranib.
(§3) This was an open-label, 2-treatment, fixed-sequence drug-drug interaction phase 1 study designed to evaluated the impact of multiple oral doses of 700 mg rivoceranib on the single-dose PK of CYP enzyme substrates administered in a 5+1 Cooperstown probe cocktail (caffeine [CYP1A2], S- and R-warfarin [CYP2C9]+vitamin K, omeprazole [CYP2C19], dextromethorphan [CYP2D6], and midazolam [CYP3A]) in healthy volunteers (N=32). On day 1, volunteers received a single dose of the 5+1 cocktail comprising 200 mg caffeine, 10 mg S- and R-warfarin with 10 mg vitamin K, 40 mg omeprazole, 30 mg dextromethorphan, and 2 mg midazolam. Blood samples were collected pre-dose on day 1 and up to 120 hours post-dose for PK analyses of the substrates in the 5+1 cocktail. On days 6 to 15, volunteers received 700 mg rivoceranib once daily for 10 consecutive days with a single dose of the 5+1 cocktail administered on day 11. Blood samples were collected pre-dose on day 11 and up to 120 hours post cocktail dosing (day 16) for PK analyses. Each dosing was under fasted conditions. There was a washout period of 5 days between day 1 dosing and the first rivoceranib dose on day 6; the 2 cocktail dosings were spaced by 10 days.

Data set [2] has as its target T1, CYP2C19. The conditions noted are these: in vivo, po.
For data set [3], the target named is T2, CYP1A2 (Homo sapiens, UniProt P05177).
T2 sequence (P05177 1-516): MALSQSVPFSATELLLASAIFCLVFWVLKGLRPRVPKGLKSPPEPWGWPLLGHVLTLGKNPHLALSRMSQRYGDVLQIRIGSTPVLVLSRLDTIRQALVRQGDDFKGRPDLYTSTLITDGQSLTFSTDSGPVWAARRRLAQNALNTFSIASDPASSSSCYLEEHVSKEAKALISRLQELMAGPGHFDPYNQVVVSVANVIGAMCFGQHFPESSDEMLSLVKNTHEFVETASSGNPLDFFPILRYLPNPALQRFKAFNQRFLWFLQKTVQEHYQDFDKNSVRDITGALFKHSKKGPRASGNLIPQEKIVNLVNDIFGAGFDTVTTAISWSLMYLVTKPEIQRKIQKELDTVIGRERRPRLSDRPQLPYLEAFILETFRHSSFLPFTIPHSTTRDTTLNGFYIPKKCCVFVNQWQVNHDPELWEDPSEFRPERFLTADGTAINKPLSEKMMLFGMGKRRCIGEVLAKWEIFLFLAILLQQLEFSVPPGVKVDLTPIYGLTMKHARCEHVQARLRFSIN
Briefly: Example 2 phase 1 drug-drug interaction study, rivoceranib 700 mg QD + 5+1 cocktail: caffeine probe. The conditions noted are these: for AUC(0-t) / AUC(0-inf) / Cmax: human, in vivo. As for the experimental part:
as §1, §2, §3

Data set [4] has as its target T2, CYP1A2. The settings on record: in vivo, po.
Data set [5] addresses T3, CYP2C9 (Homo sapiens, UniProt P11712). Briefly: Example 2 phase 1 drug-drug interaction study, rivoceranib 700 mg QD + 5+1 cocktail: S- and R-warfarin probe. Details: AUC(0-∞), Mean (CV %), 5 + 1 cocktail alone / AUC(0-∞), Geometric LSM, 5 + 1 cocktail alone / AUC(0-∞), Mean (CV %), Rivoceranib plus 5 + 1 cocktail / AUC(0-∞), Geometric LSM, Rivoceranib plus 5 + 1 cocktail / AUC(0-t), Mean (CV %), 5 + 1 cocktail alone / AUC(0-t), Geometric LSM, 5 + 1 cocktail alone / AUC(0-t), Mean (CV %), Rivoceranib plus 5 + 1 cocktail / AUC(0-t), Geometric LSM, Rivoceranib plus 5 + 1 cocktail: unit not given beside the values. As for the experimental part: as §1, §2, §3

The target in data set [6] is T3, CYP2C9. Briefly: Example 1 pharmacokinetic interaction study, rivoceranib 200 mg + Cooperstown 5+1 cocktail: warfarin probe. The settings on record: rivoceranib 200 mg daily; plasma, FIG. 4 and Table 5.
[7] abbreviates: rivoceranib 700 mg QD, 100*LSM Rivoceranib Plus 5+1 Cocktail/LSM 5+1 Cocktail Alone.
The mark [8] stands for this setting: oral, probe caffeine, Geometric LSM, Rivoceranib plus 5 + 1 cocktail, healthy volunteers, 5+1 cocktail day 11 + rivoceranib 700 mg QD days 6-15.
[9] abbreviates: oral, probe caffeine, Mean (CV %), Rivoceranib plus 5 + 1 cocktail, healthy volunteers, 5+1 cocktail day 11 + rivoceranib 700 mg QD days 6-15.
Setting [10] is: po, probe caffeine, Geometric LSM, 5 + 1 cocktail alone, healthy volunteers, single oral 5+1 cocktail dose day 1, fasted.
[11] abbreviates: po, probe caffeine, Mean (CV %), 5 + 1 cocktail alone, healthy volunteers, single oral 5+1 cocktail dose day 1, fasted.
[12] abbreviates: healthy volunteers, 5+1 cocktail day 11 + rivoceranib 700 mg QD days 6-15.
Setting [13] is: healthy volunteers, single oral 5+1 cocktail dose day 1, fasted.
[14] abbreviates: po, Geometric LSM, 5 + 1 cocktail alone.
[15] abbreviates: po, Mean (CV %), 5 + 1 cocktail alone.

T3 sequence (P11712 whole entry): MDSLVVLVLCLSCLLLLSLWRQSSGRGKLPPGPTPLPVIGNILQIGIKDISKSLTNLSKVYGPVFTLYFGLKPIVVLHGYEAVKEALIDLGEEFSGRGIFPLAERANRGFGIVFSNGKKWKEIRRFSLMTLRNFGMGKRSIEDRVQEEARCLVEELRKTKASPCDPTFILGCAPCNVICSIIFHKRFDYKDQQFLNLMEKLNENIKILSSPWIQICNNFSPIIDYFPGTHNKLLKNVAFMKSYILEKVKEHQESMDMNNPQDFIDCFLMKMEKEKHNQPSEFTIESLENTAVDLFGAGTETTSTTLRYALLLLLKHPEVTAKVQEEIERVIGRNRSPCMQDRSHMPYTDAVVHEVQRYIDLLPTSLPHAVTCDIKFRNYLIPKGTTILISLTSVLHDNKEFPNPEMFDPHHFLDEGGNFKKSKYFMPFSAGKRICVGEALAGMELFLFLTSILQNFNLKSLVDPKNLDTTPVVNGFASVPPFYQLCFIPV
T1 sequence (P33261 whole entry): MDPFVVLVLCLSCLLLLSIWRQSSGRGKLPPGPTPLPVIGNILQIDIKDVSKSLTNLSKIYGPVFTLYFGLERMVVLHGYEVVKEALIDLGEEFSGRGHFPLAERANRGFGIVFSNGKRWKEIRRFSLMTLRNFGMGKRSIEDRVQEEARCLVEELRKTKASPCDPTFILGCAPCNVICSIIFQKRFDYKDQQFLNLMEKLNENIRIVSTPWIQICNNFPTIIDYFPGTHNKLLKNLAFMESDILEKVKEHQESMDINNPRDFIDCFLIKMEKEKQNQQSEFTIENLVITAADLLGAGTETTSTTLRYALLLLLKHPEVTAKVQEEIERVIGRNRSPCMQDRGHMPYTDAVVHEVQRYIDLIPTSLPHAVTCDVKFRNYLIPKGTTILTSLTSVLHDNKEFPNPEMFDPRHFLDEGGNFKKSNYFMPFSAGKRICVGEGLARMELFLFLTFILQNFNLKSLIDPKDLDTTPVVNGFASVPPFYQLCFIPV

On to `COc1ccc2[nH]c([S+]([O-])Cc3ncc(C)c(OC)c3C)nc2c1` (stereo not drawn) [omeprazole], for which, on CYP2C19 [1] (rivoceranib 700 mg), the “increase in AUC0-inf with rivoceranib” value is recorded as 3.3 fold and the “increase in Cmax with rivoceranib” value was found to be 2 fold. Besides, at CYP2C19 [1] (setting [7]), the “AUC(0-t), Geometrical mean Ratio, % (90% CI)” value is 259.87%; the “AUC(0-∞), Geometrical mean Ratio, % (90% CI)” value amounted to 272.50%; the “Cmax, Geometrical mean Ratio, % (90% CI)” value worked out at 198.80%. On CYP2C19 [2], the “AUC(0-t), Geometric LS Mean, Cooperstown Cocktail Alone” value (from here on “AUC(0-t), Geometric LS Mean”) is 7.3711; the “AUC(0-∞), Geometric LS Mean, Cooperstown Cocktail Alone” value (“AUC(0-∞), Geometric LS Mean” below) worked out at 7.5365; the “Cmax, Geometric LS Mean, Cooperstown Cocktail Alone” value (shortened to “Cmax, Geometric LS Mean”) was found to be 6.3720.

Usually AUC(0-t) stands for the area under the concentration-time curve up to a stated or last time point. A word on the AUC(0-inf): it is the area under the concentration-time curve extrapolated to infinity. The term Cmax denotes the highest concentration seen after dosing. As for `Cn1c(=O)c2c(ncn2C)n(C)c1=O` [caffeine], on CYP1A2 [3] (setting [8]), the area under the curve AUC(0-t) was 43200 ng·h/mL, the AUC(0-inf) is 45400 ng·h/mL and the Cmax was found to be 5210 ng/mL. Besides, at CYP1A2 [3] (setting [9]), the AUC(0-t) was 44500 ng·h/mL, the total exposure AUC(0-inf) worked out at 47600 ng·h/mL and the Cmax came to 5330 ng/mL. Further, the exposure AUC(0-t) at CYP1A2 [3] (po, 200 mg, probe caffeine, Geometric LSM, 5 + 1 cocktail alone, healthy volunteers, single oral 5+1 cocktail dose day 1, fasted) is 52600 ng·h/mL. The AUC(0-t) at CYP1A2 [3] (po, 200 mg, probe caffeine, Mean (CV %), 5 + 1 cocktail alone, healthy volunteers, single oral 5+1 cocktail dose day 1, fasted) worked out at 52600 ng·h/mL. Further, at CYP1A2 [3] (setting [10]), the AUC(0-inf) was determined as 53400 ng·h/mL and the Cmax was determined as 5190 ng/mL. Further, at CYP1A2 [3] (setting [11]), the AUC(0-inf) is 53400 ng·h/mL and the peak concentration (Cmax) is 5190 ng/mL. Further, on CYP1A2 [3] (rivoceranib 700 mg QD), the “change of Cmax with rivoceranib” value is listed as “relatively unchanged; also recorded: did not change” and the “reduction of AUC0-inf by rivoceranib” value is 15%. In addition, on CYP1A2 [3] (setting [7]), the “AUC(0-∞), Geometrical mean Ratio, % (90% CI)” value turned out to be 84.87% and the “Cmax, Geometrical mean Ratio, % (90% CI)” value was found to be 100.41%. Moreover, on CYP1A2 [4], the “AUC(0-t), Geometric LS Mean” value was found to be 10.6274; the “AUC(0-∞), Geometric LS Mean” value was determined as 10.6463; the “Cmax, Geometric LS Mean” value is given as 8.4984.

`CC(=O)C[C@H](c1ccccc1)c1c(O)c2ccccc2oc1=O` [R-warfarin]: at CYP2C9 [5] (setting [12]), the “AUC(0-t), Geometric LSM, Rivoceranib plus 5 + 1 cocktail” value is 36,090; the “AUC(0-t), Mean (CV %), Rivoceranib plus 5 + 1 cocktail” value was 36,660; the “AUC(0-∞), Geometric LSM, Rivoceranib plus 5 + 1 cocktail” value is recorded as 48,560; the “AUC(0-∞), Mean (CV %), Rivoceranib plus 5 + 1 cocktail” value was 49,220. Also, at CYP2C9 [5] (setting [12]), the “Cmax, Geometric LSM, Rivoceranib plus 5 + 1 cocktail” value is on record as 804.9 ng/mL and the “Cmax, Mean (CV %), Rivoceranib plus 5 + 1 cocktail” value is reported as 816.0 ng/mL. Also, on CYP2C9 [5] (setting [13]), the “AUC(0-t), Geometric LSM, 5 + 1 cocktail alone” value is 29,860; the “AUC(0-t), Mean (CV %), 5 + 1 cocktail alone” value is on record as 29,860; the “AUC(0-∞), Geometric LSM, 5 + 1 cocktail alone” value is on record as 36,750; the “AUC(0-∞), Mean (CV %), 5 + 1 cocktail alone” value is 36,750. Also, on CYP2C9 [5] (setting [13]), the “Cmax, Geometric LSM, 5 + 1 cocktail alone” value was found to be 701.2 ng/mL and the “Cmax, Mean (CV %), 5 + 1 cocktail alone” value is on record as 701.2 ng/mL. Moreover, at CYP2C9 [5] (rivoceranib 700 mg), the “increase in AUC0-inf when co-administered with rivoceranib” value stood at 32% and the “increase in Cmax when co-administered with rivoceranib” value amounted to 15%. On CYP2C9 [6], the “levels on coadministration with rivoceranib” value is listed as “relatively unaffected”.

Turning to `Cn1c(=O)[nH]c2ncn(C)c2c1=O` [paraxanthine], on CYP1A2 [3] (setting [14]), the exposure AUC(0-t) turned out to be 31000 ng·h/mL, the AUC(0-inf) came to 31700 ng·h/mL and the Cmax worked out at 1440 ng/mL. On CYP1A2 [3] (setting [15]), the area under the curve AUC(0-t) is 31000 ng·h/mL, the AUC(0-inf) was determined as 28700 ng·h/mL and the maximum concentration (Cmax) stood at 1440 ng/mL. Moreover, on CYP1A2 [4], the “AUC(0-t), Geometric LS Mean” value is 10.0780; the “AUC(0-∞), Geometric LS Mean” value turned out to be 10.1025; the “Cmax, Geometric LS Mean” value is reported as 7.1157.
